Results on ten molecules are retold here after ChEMBL document CHEMBL1201862, “PubChem BioAssay data set” (2004).

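Test compounds were applied to cells in 96-well plates for 48 hours at 5 doses. Abbreviation: GI50, concentration required for 50% inhibition of growth.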 Active and inactive are the calls of the source. Rule as the data show it: active = GI50 up to about 1.1 µM and inactive = higher.

What all share (assay): NCI anticancer screen, dose series, 48 h
Test [1] deals with HT-29.
Test [2] deals with NCI-H522.
Test [3] relates to RPMI-8226.
For test [4], the system named is SNB-19.
In test [5] the test system is OVCAR-3.
Test [6] has as its system HCT-116.
For test [7], the system named is MDA-MB-231.
In test [8] the test system is UACC-62.
Test [9] relates to SK-MEL-28.
Test [10] relates to SNB-75.
Test [11] has as its system HCC 2998.
Test [12] has as its system DU-145.
In test [13] the test system is 786-0.
Test [14] has as its system CAKI-1.
The test system of test [15] is MDA-MB-435.
Test [16] has as its system HOP-62.
The test system of test [17] is COLO 205.
The test system of test [18] is NCI/ADR-RES.
Test [19] has as its system SW-620.
Test [20] has as its system SR.

As to `CCCCCCCCCCCCCCCCCCNc1ccn(C2OC(CO)C(OP(=O)(O)OCC(O)COP(=O)(O)OCC3OC(n4cc(F)c(NCCCCCCCCCCCCCCCCCC)nc4=O)CC3O)C2O)c(=O)n1` (configuration not stated), the GI50 in test [1], in test [2], in [3], in test [4], in [5] and in [6] was > 50 µM (inactive) each time. The GI50 in [7], in test [8], in test [9], in [10], in [11] and in test [12] was > 50 µM (inactive) throughout. In addition, the GI50 in test [13], in [14], in test [15], in test [16], in [17] and in test [18] was > 50 µM (inactive) in each case. Further, in [19], the GI50 is > 50 µM (inactive).

Consider `O=C(OCCN=c1c2ccccc2ccc2ccccc12)c1ccc([N+](=O)[O-])cc1`, for which the GI50 in test [1], in test [3], in [4], in test [20], in [5] and in test [6] was > 100 µM (inactive) each time. Further, the GI50 in test [7], in test [8], in test [9], in test [10], in [11] and in test [12] was > 100 µM (inactive) each time. Further, the GI50 in test [13], in [14], in [15], in test [16], in test [17] and in test [18] was > 100 µM (inactive) each time. For the same molecule, in [19], the GI50 is > 100 µM (inactive).

For the molecule `CCN1CC2=C(N=c3s/c(=C\c4ccc(Cl)cc4)c(=O)n3C2c2ccc(Cl)cc2)/C(=C/c2ccc(Cl)cc2)C1` (configuration not stated), the GI50 in [1] was > 100 µM (inactive); in [2], > 100 µM (inactive); in test [3] it was 84.9 µM (inactive); in test [4] it was 44.4 µM (inactive); in test [5], > 100 µM (inactive); in test [6] it was 44.1 µM (inactive). The GI50 in test [7] is 25.6 µM (inactive); in test [8] it was 32.2 µM (inactive); in test [9], > 100 µM (inactive); in test [10], 2.37 µM (inactive); in test [11], > 100 µM (inactive); in test [12], > 100 µM (inactive). Moreover, the GI50 in [13] is 10.4 µM (inactive); in test [14], 16.4 µM (inactive); in [15] it was > 100 µM (inactive); in [16], 14.7 µM (inactive); in test [17] it was > 100 µM (inactive); in [18], > 100 µM (inactive). For the same molecule, the GI50 in [19] was > 100 µM (inactive).

In the case of `Cn1c2ccccc2c(=O)c2cccc(C(=O)NCC(=O)O)c21`, the GI50 in [1], in [3], in test [4], in [20], in test [5] and in test [6] was > 100 µM (inactive) throughout. For the same molecule, the GI50 in test [7] was > 100 µM (inactive); in [8], > 100 µM (inactive); in [9], > 100 µM (inactive); in [10], 88.9 µM (inactive); in test [11], > 100 µM (inactive); in test [12] it was > 100 µM (inactive). Also, the GI50 in [13] was > 100 µM (inactive); in test [15] it was > 100 µM (inactive); in test [16] it was > 100 µM (inactive); in [17], > 100 µM (inactive); in test [18], 60.3 µM (inactive); in [19] it was > 100 µM (inactive).

As to `CC12CCC3[C@@H](CC3(C)C)C(O)(CCC1=O)C2` (some centres not stated), the GI50 in [1], in test [3], in test [20], in test [5], in test [6] and in test [7] was > 100 µM (inactive) in each case. In addition, the GI50 in test [8], in test [9], in test [10], in test [11], in [12] and in test [13] was > 100 µM (inactive) throughout. The GI50 in test [14], in test [15], in test [16], in test [17], in [18] and in test [19] was > 100 µM (inactive) each time.

For the molecule `N#Cc1nnc2ccccc2c1N`, the GI50 was > 100 µM (inactive) in [1]; > 100 µM (inactive) in [3]; > 100 µM (inactive) in test [4]; > 100 µM (inactive) in [20]; 2.26 µM (inactive) in test [5]; > 100 µM (inactive) in test [6]. For the same molecule, the GI50 in test [7], in test [8], in test [9], in test [11], in test [12] and in [13] was > 100 µM (inactive) in each case. Moreover, the GI50 in test [14], in [15], in [16], in test [17], in test [18] and in test [19] was > 100 µM (inactive) throughout.

For the molecule `CCCC(=O)OCC(COC(=O)CCC)OC(=O)CCC` [TRIBUTYRIN], the GI50 in test [1] was > 100 µM (inactive); in test [2] it was 17.9 µM (inactive); in [3] it was 17.1 µM (inactive); in test [4] it was > 100 µM (inactive); in [5], > 100 µM (inactive); in [6] it was 48.8 µM (inactive). Further, the GI50 in [7] is 45.2 µM (inactive); in [8], 58.3 µM (inactive); in test [9], 66.1 µM (inactive); in test [10] it was 36.7 µM (inactive); in test [11], > 100 µM (inactive); in test [12], 29.9 µM (inactive). The GI50 in test [13] was > 100 µM (inactive); in [14] it was 49.1 µM (inactive); in test [15], 85.7 µM (inactive); in test [16], > 100 µM (inactive); in test [17], 55.6 µM (inactive); in [18], 20.1 µM (inactive). In addition, the GI50 in [19] is > 100 µM (inactive).

`Fc1ccc(C(OCCN2CC3CC2CN3CCCc2ccccc2)c2ccc(F)cc2)cc1` (configuration not stated): the GI50 in test [1] is 3.85 µM (inactive); in test [2] it was 7.98 µM (inactive); in test [3] it was 2.88 µM (inactive); in test [4] it was 13.3 µM (inactive); in [5], 9.98 µM (inactive); in test [6] it was 5.86 µM (inactive). The GI50 in [7] was 4.61 µM (inactive); in [8] it was 11.1 µM (inactive); in [9] it was 2.96 µM (inactive); in test [10], 0.955 µM (active); in [11], 2.38 µM (inactive); in test [12] it was 10.1 µM (inactive). The GI50 in [13] was 5.53 µM (inactive); in test [14], 10.1 µM (inactive); in test [15], 5.3 µM (inactive); in [16], 11.4 µM (inactive); in test [17], 1.68 µM (inactive); in test [18], 5.64 µM (inactive). Also, in test [19], the GI50 is 6.53 µM (inactive).

In the case of `O=c1cc(N2CCCC2)[nH]c(=O)n1-c1ccc(Cl)cc1`, the GI50 in [1], in [2], in test [3], in test [4], in test [5] and in test [6] was > 100 µM (inactive) in each case. In addition, the GI50 in test [7], in test [8], in [9], in test [10], in test [11] and in test [12] was > 100 µM (inactive) each time. Moreover, the GI50 in test [13], in test [14], in test [15], in test [16], in test [17] and in test [18] was > 100 µM (inactive) each time. In addition, the GI50 in test [19] was > 100 µM (inactive).

As for `CC(C)=CCc1c2c(c3occ(-c4ccc(O)cc4)c(=O)c3c1O)CC(C(C)(C)O)O2` (configuration not stated) [SENEGALENSIN], the GI50 was 12 µM (inactive) in test [1]; 15.8 µM (inactive) in test [2]; 9.77 µM (inactive) in test [3]; 16.4 µM (inactive) in test [4]; 14.4 µM (inactive) in test [5]; 16.7 µM (inactive) in test [6]. Besides, the GI50 in [7] is 14.4 µM (inactive); in test [8], 16.4 µM (inactive); in test [9], 24.3 µM (inactive); in test [10], 17.8 µM (inactive); in test [11], 11.2 µM (inactive); in [12] it was 15.5 µM (inactive). For the same molecule, the GI50 in [13] was 16.8 µM (inactive); in [14], 18.8 µM (inactive); in test [15], 16.6 µM (inactive); in test [16] it was 18.7 µM (inactive); in test [17], 14.6 µM (inactive); in test [18] it was 15.7 µM (inactive). The GI50 in test [19] is 21.7 µM (inactive).
